These results are taken from ChEMBL document CHEMBL5724914, “Linking interpersonal differences in gut microbiota composition and drug biotransformation activity” (2024).

For data set [1] the following is noted: human gut metagenome, 24 h, 2 µM.
The conditions of data set [2]: human gut metagenome, 24 h, 2 µM. This is another data set of the same source.
Data set [3] can be described thus: The drug is tested on Z-008 corresponding to metagenome with ENA study accession number: PRJEB37062 and ENA sample accession number: ERS12561808 for biotransformation under anaerobic condition. The drug concentrations were measured over 9 timepoints collected between 0 and 24 hours of incubation by liquid-chromatography-coupled mass spectrometry (LC–MS). The conditions noted are these: 2 µM.

A short description of data set [4]: The drug is tested on Z-003 corresponding to pig gut metagenome with ENA study accession number: PRJEB37062 and ENA sample accession number: ERS12561803 for biotransformation under anaerobic condition. The drug concentrations were measured over 9 timepoints collected between 0 and 24 hours of incubation by liquid-chromatography-coupled mass spectrometry (LC–MS). The conditions noted are these: 2 µM.

For data set [5] the following is noted: human gut metagenome, 24 h, 2 µM. This is another data set of the same source.
The conditions of data set [6]: human gut metagenome, 24 h, 2 µM. This is another data set of the same source.
The conditions of data set [7]: human gut metagenome, 24 h, 2 µM. This is another data set of the same source.
The nature of data set [8]: The drug is tested on WLS-077 corresponding to human gut metagenome with ENA study accession number: PRJEB37062 and ENA sample accession number: ERS12561750 for biotransformation under anaerobic condition. The drug concentrations were measured over 9 timepoints collected between 0 and 24 hours of incubation by liquid-chromatography-coupled mass spectrometry (LC–MS). The note with it: 2 µM.

Data set [9] can be described thus: The drug is tested on WLS-310 corresponding to human gut metagenome with ENA study accession number: PRJEB37062 and ENA sample accession number: ERS12561785 for biotransformation under anaerobic condition. The drug concentrations were measured over 9 timepoints collected between 0 and 24 hours of incubation by liquid-chromatography-coupled mass spectrometry (LC–MS). The note with it: 2 µM.

The conditions of data set [10]: human gut metagenome, 24 h, 2 µM. The source holds these as a separate data set.
A short description of data set [11]: The drug is tested on WLS-098 corresponding to human gut metagenome with ENA study accession number: PRJEB37062 and ENA sample accession number: ERS12561754 for biotransformation under anaerobic condition. The drug concentrations were measured over 9 timepoints collected between 0 and 24 hours of incubation by liquid-chromatography-coupled mass spectrometry (LC–MS). The conditions noted are these: 2 µM.

For data set [12] the following is noted: human gut metagenome, 24 h, 2 µM. This is another data set of the same source.
The nature of data set [13]: The drug is tested on WLS-010 corresponding to human gut metagenome with ENA study accession number: PRJEB37062 and ENA sample accession number: ERS12561743 for biotransformation under anaerobic condition. The drug concentrations were measured over 9 timepoints collected between 0 and 24 hours of incubation by liquid-chromatography-coupled mass spectrometry (LC–MS). The conditions noted are these: 2 µM.

The conditions of data set [14]: human gut metagenome, 24 h, 2 µM. This is another data set of the same source.
A short description of data set [15]: The drug is tested on Z-014 corresponding to rat gut metagenome with ENA study accession number: PRJEB37062 and ENA sample accession number: ERS12561814 for biotransformation under anaerobic condition. The drug concentrations were measured over 9 timepoints collected between 0 and 24 hours of incubation by liquid-chromatography-coupled mass spectrometry (LC–MS). The note with it: 2 µM.

The nature of data set [16]: The drug is tested on Z-010 corresponding to metagenome with ENA study accession number: PRJEB37062 and ENA sample accession number: ERS12561810 for biotransformation under anaerobic condition. The drug concentrations were measured over 9 timepoints collected between 0 and 24 hours of incubation by liquid-chromatography-coupled mass spectrometry (LC–MS). The note with it: 2 µM.

A short description of data set [17]: The drug is tested on Z-006 corresponding to mouse gut metagenome with ENA study accession number: PRJEB37062 and ENA sample accession number: ERS12561806 for biotransformation under anaerobic condition. The drug concentrations were measured over 9 timepoints collected between 0 and 24 hours of incubation by liquid-chromatography-coupled mass spectrometry (LC–MS). The conditions noted are these: 2 µM.

Data set [18] in a line: The drug is tested on Z-012 corresponding to metagenome with ENA study accession number: PRJEB37062 and ENA sample accession number: ERS12561812 for biotransformation under anaerobic condition. The drug concentrations were measured over 9 timepoints collected between 0 and 24 hours of incubation by liquid-chromatography-coupled mass spectrometry (LC–MS). The conditions noted are these: 2 µM.

For data set [19] the following is noted: human gut metagenome, 24 h, 2 µM. The source holds these as a separate data set.
The nature of data set [20]: The drug is tested on Z-026 corresponding to metagenome with ENA study accession number: PRJEB37062 and ENA sample accession number: ERS12561825 for biotransformation under anaerobic condition. The drug concentrations were measured over 9 timepoints collected between 0 and 24 hours of incubation by liquid-chromatography-coupled mass spectrometry (LC–MS). The note with it: 2 µM.
Also: call rule not given here.

As for `CCC1(c2ccc(N)cc2)CCC(=O)NC1=O` (stereo unspecified) [AMINOGLUTETHIMIDE], the “Bacterial Biotransformation” value in [1], in data set [2], in [3], in data set [4], in data set [5] and in [6] was “Compound NOT metabolized” in each case. Moreover, the “Bacterial Biotransformation” value in [7], in [8], in [9], in data set [10], in data set [11] and in data set [12] was “Compound NOT metabolized” throughout. The “Bacterial Biotransformation” value in data set [13], in [14], in [15], in data set [16], in data set [17] and in data set [18] was “Compound NOT metabolized” in each case. Also, in data set [19], the “Bacterial Biotransformation” value is listed as “Compound NOT metabolized”.
Regarding `CC(C)c1c(C(=O)Nc2ccccc2)c(-c2ccccc2)c(-c2ccc(F)cc2)n1CC[C@@H](O)C[C@@H](O)CC(=O)O` [ATORVASTATIN], the “Bacterial Biotransformation” value in data set [1] is on record as “Compound metabolized”; in data set [2] it was “Compound metabolized”; in data set [3], “Compound NOT metabolized”; in [4], “Compound metabolized”; in data set [5] it was “Compound metabolized”; in data set [6], “Compound NOT metabolized”. Further, the “Bacterial Biotransformation” value in data set [7], in data set [8], in [9], in data set [10], in data set [11] and in data set [12] was “Compound metabolized” throughout. For the same compound, the “Bacterial Biotransformation” value in [14] is on record as “Compound metabolized”; in data set [15], “Compound NOT metabolized”; in data set [16], “Compound metabolized”; in [17], “Compound NOT metabolized”; in [20], “Compound NOT metabolized”; in data set [18] it was “Compound NOT metabolized”. Moreover, the “Bacterial Biotransformation” value in data set [19] is “Compound NOT metabolized”.
Consider `CC(=O)O[C@]1(C(C)=O)CC[C@H]2[C@@H]3C=C(Cl)C4=CC(=O)[C@@H]5C[C@@H]5[C@]4(C)[C@H]3CC[C@@]21C` [CYPROTERONE ACETATE], for which the “Bacterial Biotransformation” value was “Compound metabolized” in [1]; “Compound metabolized” in data set [2]; “Compound metabolized” in [4]; “Compound metabolized” in data set [5]; “Compound NOT metabolized” in data set [6]; “Compound metabolized” in data set [7]. Further, the “Bacterial Biotransformation” value in [8], in data set [9], in [10], in data set [11], in data set [12] and in data set [13] was “Compound metabolized” each time. Moreover, the “Bacterial Biotransformation” value in data set [14], in data set [16] and in data set [19] was “Compound metabolized” each time.
With `C#C[C@]1(O)CC[C@H]2[C@@H]3CCC4=Cc5oncc5C[C@]4(C)[C@H]3CC[C@@]21C` [DANAZOL], the “Bacterial Biotransformation” value in data set [3], in data set [4], in data set [7], in data set [8], in [9] and in [10] was “Compound metabolized” in each case. The “Bacterial Biotransformation” value is given as “Compound metabolized” in [12]; “Compound metabolized” in data set [13]; “Compound NOT metabolized” in [15]; “Compound metabolized” in [16]; “Compound metabolized” in data set [17]; “Compound metabolized” in data set [20].
Take `CCN(CC)C(=O)/C(C#N)=C/c1cc(O)c(O)c([N+](=O)[O-])c1` [ENTACAPONE]: the “Bacterial Biotransformation” value in data set [3], in data set [4], in data set [10], in data set [15], in data set [16] and in data set [17] was “Compound metabolized” in each case. The “Bacterial Biotransformation” value in [20], in data set [18] and in [19] was “Compound metabolized” in each case.
As for `COc1ccccc1N1CCN(CC(O)COc2cccc3ccccc23)CC1` (stereo unspecified) [NAFTOPIDIL], the “Bacterial Biotransformation” value in data set [1], in data set [2], in data set [3], in [4], in [5] and in data set [6] was “Compound NOT metabolized” in each case. The “Bacterial Biotransformation” value in data set [7], in [8], in data set [9], in [10], in data set [11] and in data set [12] was “Compound NOT metabolized” each time. In addition, the “Bacterial Biotransformation” value in data set [13], in [14], in data set [15], in data set [16], in [17] and in [18] was “Compound NOT metabolized” throughout. Also, in [19], the “Bacterial Biotransformation” value is listed as “Compound NOT metabolized”.
For the compound `Cc1nc2n(c(=O)c1CCN1CCC(c3noc4cc(F)ccc34)CC1)CCCC2O` (stereo unspecified) [PALIPERIDONE], the “Bacterial Biotransformation” value in data set [1] is given as “Compound metabolized”; in data set [2] it was “Compound metabolized”; in data set [3], “Compound NOT metabolized”; in data set [4] it was “Compound NOT metabolized”; in [5] it was “Compound metabolized”; in data set [6], “Compound metabolized”. The “Bacterial Biotransformation” value in data set [7], in data set [8], in [9], in data set [10], in data set [11] and in data set [12] was “Compound metabolized” throughout. The “Bacterial Biotransformation” value in data set [13] is given as “Compound metabolized”; in data set [14] it was “Compound metabolized”; in [15] it was “Compound NOT metabolized”; in data set [16] it was “Compound NOT metabolized”; in data set [20] it was “Compound NOT metabolized”; in [19] it was “Compound metabolized”.
